For one assay, the system named is primary neurons. The assay can be described thus: Intracellular calcium mobilization (excitability) assay. The assay is classed as cell-based, mouse. The note with it: CI inhibition. The method, then: Neuronal functionality was measured by the Rhod-4 No Wash Calcium Assay Kit (Abcam, Cat No. ab112157), following the manufacturer's instructions for intracellular calcium assay. In short, culture medium was removed, and Rhod-4 dye containing buffer was gently added to cells, followed by incubation at 37 degrees for 30 min followed by 20 min at room temperature. For imaging and quantification of intracellular calcium mobilization, confocal images were acquired using a Zeiss LSM800 confocal microscope (Jena, Alemania) enabled with a 10X objective. Time lapse images of the confocal scan were acquired every 0.5 second over a ten-minute period. Neuronal cultures were treated with 100mM KCl (final concentration) added after the first 4 minutes to establish a baseline and observe the steady- state changes in calcium mobilization in response to the treatment. Acquired confocal images were post-processed using the free and open-source Fiji image processing software. Fluorescent intensity changes were quantified using fixed parameters across the entire set of captured images.
(In general: Calcium assays in cells follow changes in intracellular calcium, usually with a dye or a luminescent sensor.)

In a further assay the test system is astrocytes. Briefly: ATP measurement in astrocytes (ATP Assay Kit). Format: cell-based, mouse. The note with it: 100 nM, 24 h. On the procedure: Primary cultures of C57BL/6 mouse cortical astrocytes were derived from postnatal day 2-3 pups. They were plated on pre-treated dishes coated with Poly-L-lysine (100 µg/ml) and cultured in DMEM/F-12 (ThermoFisher) supplemented with 15% FBS and 1% penicillin/streptomycin (P/S). After 24 hours of plating, the medium was switched to 10% FBS.
ATP Assay Kit (Abcam, #ab83355) was used to analyze ATP levels. Briefly, Cells were seeded in M24 plates (neurons at 500,000 cells/mL and monolayer density for astrocytes), and for the ATP experiments, three wells per condition were combined. An alternative deproteinization protocol was applied to purify the samples, and a Colorimetric Assay was conducted as outlined in the original protocol. The measurements were obtained using the CLARIOstar Plus plate reader from BMG LABTECH.

These results are taken from EP4653001A1, “TREATMENT, DIAGNOSIS AND/OR PROGNOSIS OF MITOCHONDRIAL DISEASES” (Universidad Autónoma de Madrid, priority 2024, dated 2025).

On to `CC=C(C)C(O)C(C)C=C(C)C=CCC(C)=CCc1nc(OC)c(OC)c(O)c1C` (centres unmarked) [Piericidin, Piericidin A], for which the excitability response result in the assay with primary neurons was “diminished”. In addition, the ATP levels entry with astrocytes is reported as “did not cause any alteration”.
